Columns and labels:
[1] = test system: FHs74 cells; details: previous study; cited from earlier work
[2] = test system: FR on FHs74 cells; experiment: Folate receptor blocking studies in FHs74 cells; type: cell-based, human; details: blocking of P2Ns-NAR uptake
Excerpt: FR Specificity to NAR. The FR-mediated transport of P2Ns-NAR was confirmed by performing blocking studies. Folic acid (FA) strongly binds to FR, with the FA frequently being employed as a targeting ligand on nanoparticles for receptor-mediated drug delivery.^29,30 On the other hand, FA in larger doses is also associated with adverse side effects including toxicity to humans.^16,31,32 The use of NAR as an FR-specific ligand could potentially overcome this limitation and provide a safer alternative for receptor-mediated drug delivery. Selective blockade of FR on FHs74 cells was performed to evaluate the FR-mediated uptake of P2Ns-NAR. Cells were saturated with varying concentrations of blocking agents: antifolate antibody (AB), FA, and MTHFA.

Nc1nc2ncc(CNc3ccc(C(=O)N[C@@H](CCC(=O)O)C(=O)O)cc3)nc2c(=O)[nH]1 [FA, Folic acid]
Time to saturate FHs74 cells [1]: less than 1 hour

CN1c2c(nc(N)[nH]c2=O)NCC1CNc1ccc(C(=O)N[C@@H](CCC(=O)O)C(=O)O)cc1 (some centres unmarked) [MTHFA, methyltetrahydrofolic acid]
Concentration of blocking agent needed for blocking levels similar to FA [2]: Higher concentrations
